Results taken from patent US10273235B2, “Compositions and methods for inhibiting β-lactamase” (LegoChem Biosciences, Inc., priority 2015, dated 2019).
pIC50: −log10 of the molar value.

Tests used:
E. coli K0519020 = experiment: MIC of strain used for extraction of enzymes, E. coli K0519020 (CTX-M-15, TEM-1, OXA-1, AmpC (NC_000913)); type: cell-based; settings: BLI: 4 ug/mL
[1] = molecular target: T1, CMY-10 β-lactamase (class C) (Klebsiella aerogenes, UniProt Q99QC1); experiment: Inhibitory activity against β-lactamases (nitrocefin), CMY-10; type: biochemical
T1 construct: MICs of bacterial strains used for extraction of enzymes; endogenous in cells
Procedure: More diluted stocks were prepared as necessary. Enzyme activity was determined by monitoring the change of absorbance at 492 nm using the characteristic molecular extinction coefficient (Δε492=17,400 M^−1 cm^−1) of nitrocefin by a Shimazu UV-1650PC spectrophotometer. The nitrocefin was purchased from OXOID. Kinetic measurements were run at 30° C. in 10 mM MES[2-(N-morpholino)ethanesulfonic acid]buffer (pH 6.8) or 10 mM MES[2-(N-morpholino)ethanesulfonic acid] buffer (pH 6.8), […] BSA and 50 mM sodium bicarbonate. Reactions were performed in 2.5 mL cuvettes with 100 μM nitrocefin and initiated by adding 1.5 nM to 2.5 nM enzyme. The first 180 s of each reaction was used to measure initial rates. Data were evaluated using Microsoft Excel. Concentration dependent inhibition of enzyme was measured using different concentrations of inhibitors resulting from two-fold dilution series. Reaction progress at every concentration of inhibitor was measured in triplicates. IC50 values were calculated using 4-parameter log fits using XL Fit curve fitting software (www.idbs.com) for Excel using the following equation:
[formula] where y is the remaining enzyme activity (in %) and x is the corresponding concentration. he fitted IC50 parameter is the relative IC50, and is defined as the concentration giving a response half way between the fitted top (B) and bottom (A) of the curve.

E. coli TOPDXA048 = experiment: MIC of strain used for extraction of enzymes, E. coli TOPDXA048 (OXA-48, TEM-116, AmpC (NC_000913)); type: cell-based
E. coli ECO200 = experiment: MIC of strain used for extraction of enzymes, E. coli ECO200 (NDM-1, TEM-1, CTX-M-15, EC (AmpC), OXA-2 type); type: cell-based
E. aerogenes K9911729 = experiment: MIC of strain used for extraction of enzymes, E. aerogenes K9911729 (CMY-10, TEM-1, SHV-12, AmpC (DQ478697)); type: cell-based; settings: BLI: 4 ug/mL
K. pneumoniae CL5761 = experiment: MIC of strain used for extraction of enzymes, K. pneumoniae CL5761 (KPC-3, TEM-216, SHV-5); type: cell-based; settings: BLI: 4 ug/mL
Procedure: MIC90 (μg/mL) is the lowest concentration of an antibiotic that will inhibit the visible growth of 90% of microorganisms after incubation as compared with a control group to which the antibiotic is not treated.
MIC values were measured by the broth microdilution method developed by the Clinical and Laboratory Standards Institute (CLSI) (see CLSI M07-A9, Methods for Dilution Antimicrobial Susceptibility Test for Bacteria that Grow Aerobically; Approved Standard-Ninth Edition (2012): CLSI, Villanova, Pa.). The in vitro antibacterial activity was measured with respect to the following 9 clinical isolates: P. aeruginosa (3 strains); K. pneumoniae (6 strains). The in vitro antibacterial activity of selected compounds was measured with respect to the following 15 clinical isolates: K. pneumoniae (15 strains).

T1 sequence (Q99QC1 24-382): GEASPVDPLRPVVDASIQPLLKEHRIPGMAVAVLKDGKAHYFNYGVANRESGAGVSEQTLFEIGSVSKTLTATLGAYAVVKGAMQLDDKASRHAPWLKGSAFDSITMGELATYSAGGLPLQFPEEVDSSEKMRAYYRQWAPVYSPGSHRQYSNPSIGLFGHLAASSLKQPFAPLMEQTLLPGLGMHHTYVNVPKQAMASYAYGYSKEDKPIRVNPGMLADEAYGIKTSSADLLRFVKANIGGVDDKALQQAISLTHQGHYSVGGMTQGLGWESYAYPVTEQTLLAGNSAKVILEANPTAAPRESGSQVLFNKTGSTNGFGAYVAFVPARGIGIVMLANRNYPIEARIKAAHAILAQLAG

## NC(=O)[C@@H]1CC[C@@H]2CN1C(=O)N2OS(=O)(=O)O [Avibactam]
E. coli K0519020
  MIC of Meropenem with BLI: 0.25 µg/mL
E. coli K0519020; Escherichia coli, K0519020, read-out: MIC of LCB10-0200 with BLI
  MIC: 0.25 µg/mL
[1]
  pIC50: 7.89
E. coli TOPDXA048; BLI: 4 ug/mL
  MIC of Meropenem with BLI: 0.5 µg/mL
E. coli TOPDXA048; Escherichia coli, TOPDXA048, read-out: MIC of LCB10-0200 with BLI
  MIC: 0.25 µg/mL
E. coli ECO200; BLI: 4 ug/mL
  MIC of Meropenem with BLI: >64 µg/mL
E. coli ECO200; Escherichia coli, ECO200, read-out: MIC of LCB10-0200 with BLI
  MIC: > 64 µg/mL
E. aerogenes K9911729
  MIC of Meropenem with BLI: 0.5 µg/mL
E. aerogenes K9911729; Klebsiella aerogenes, K9911729, read-out: MIC of LCB10-0200 with BLI
  MIC: 2 µg/mL
K. pneumoniae CL5761
  MIC of Meropenem with BLI: 1 µg/mL
K. pneumoniae CL5761; Klebsiella pneumoniae, CL5761, read-out: MIC of LCB10-0200 with BLI
  MIC: 16 µg/mL
